# Data from US11865126B2, “Method for treating anxiety disorders, headache disorders, and eating disorders with psilocybin” (priority 2019, dated 2024).
# System: healthy subjects
# Assay: Life Changes Inventory (LCI)
# Assay type: in vivo, human
# From the text: In some embodiments, the Life Changes Inventory (LCI) questionnaire is utilized to evaluate the safety and/or efficacy of psilocybin. The LCI is designed as a questionnaire to investigate those variables present in the day-to-day experience of adults that might relate either to stability or decline of intellectual ability.
# The following list of outcome measures are non-exhaustive. • a. The short-term change from Baseline (Day −1 [Visit 2]) to Day 7 (Visit 5) in cognitive measures of attention, spatial and working memory and executive function was measured by a composite score of the CANTAB Panel (Spatial Working Memory [SWM], Rapid Visual Information Processing [RVP], Paired Associates Learning [PAL]). • b. The short-term change from Baseline (Day −1 [Visit 2]) to Day 7 (Visit 5) in Social Cognition Panel scales (Pictorial Empathy Test [PET], Reading the Mind in the Eyes Test [RMET], Toronto Empathy Questionnaire [TEQ], Social Value Orientation [SVO], Scale of Social Responsibility [SSR]). • c. The change from Baseline (Day −1 [Visit 2]) to Day 28 (Visit 6) in cognitive measures of attention, spatial and working memory and executive function as measured by a composite score of the CANTAB Panel (SWM, RVP, PAL). • d. The long-term change from Baseline (Day −1 [Visit 2]) to Day 84 (Visit 7) in Social Cognition Panel scales (PET, RMET, TEQ, SVO, SSR). • e. Dose-related differences between cognitive effects of psilocybin at Baseline (Day −1 [Visit 2]), Day 7 (Visit 5) and Day 28 (Visit 6), as measured by a composite score of the CANTAB Panel (SWM, RVP, PAL). • f. Dose-related differences between psychological effects of psilocybin at Baseline (Day −1 [Visit 2]), Day 7 (Visit 5) and Day 84 (Visit 7), as measured by Social Cognition Panel scales (PET, RMET, TEQ, SVO, SSR). • g. Differences in cognitive effects of psilocybin between psilocybin-naïve and experienced subjects at Baseline (Day −1 [Visit 2]), Day 7 (Visit 5) and Day 28 (Visit 6), as measured by a composite score of the CANTAB Panel (SWM, RVP, PAL). • h. Differences in Positive and Negative Affect Schedule (PANAS) after study drug administration on Day 0 (Visit 3). • i. Differences between psilocybin and placebo in the Emotion Recognition Test (ERT), Intra-Extra Dimensional Set Shift (IED), One Touch Stockings (OTS), Verbal Fluency and Digit Span Forward at Day 7 (Visit 5). • j. A composite score of the CANTAB Panel, including the following tests: • i. Spatial Working Memory (SWM) (performed at Visit 2, Visit 5, and Visit 6). • ii. Rapid Visual Information Processing (RVP) (performed at Visit 2, Visit 5, and Visit 6). • iii. Paired Associates Learning (PAL) (performed at Visit 2, Visit 5, and Visit 6). • k. Cognitive Flexibility Panel • i. Emotion Recognition Task (ERT) (performed at Visit 5). • ii. Intra-Extra Dimensional Set Shift (IED) (performed at Visit 5). • iii. One Touch Stockings (OTS) (performed at Visit 5). • iv. Verbal Fluency (performed at Visit 5). • v. Digit Span Forward (performed at Visit 5). • l. Five Dimension Altered States of Consciousness questionnaire (5D-ASC) (performed at Visit 3). • m. PANAS (performed at Visit 2 and Visit 3). • n. NEO-Five Factor Inventory (NEO-FFI) (performed at Visit 2, Visit 5, and Visit 7). • o. Symptom Checklist-90 item (SCL-90) (performed at Visit 2, Visit 5, and Visit 7). • p. Life Changes Inventory (LCI): The LCI measures changes in attitudes and values after near-death experiences often used to evaluate personal transformation following spiritually oriented experiences and practices. (performed at Visit 5 and Visit 7). • q. Social Cognition Panel scales • i. Pictorial Empathy Test (PET) (performed at Visit 2, Visit 5, and Visit 7). • ii. Reading the Mind in the Eyes Test (RMET) (performed at Visit 2, Visit 5, and Visit 7). • iii. Social Value Orientation (SVO) (performed at Visit 2, Visit 5, and Visit 7). • iv. Toronto Empathy Questionnaire (TEQ) (performed at Visit 2, Visit 5, and Visit 7). • v. […]
compound,measurement,setting,value
CN(C)CCc1c[nH]c2cccc(OP(=O)(O)O)c12 [psilocybin],LCI Self-Acceptance Scores (LS mean),"10 mg psilocybin, Day 7 (Example 19)",0.8
same,LCI Self-Acceptance Scores (LS mean),"10 mg psilocybin, Day 84 (Example 19)",0.6
same,LCI Self-Acceptance Scores (LS mean),"25 mg psilocybin, Day 7 (Example 19)",0.6
same,LCI Self-Acceptance Scores (LS mean),"25 mg psilocybin, Day 84 (Example 19)",0.6
same,"LCI - absolute change, difference Psilocybin 10 mg - Placebo",Day 7,0.4
same,"LCI - absolute change, difference Psilocybin 25 mg - Placebo",Day 7,0.3
same,"LCI - absolute change, difference Psilocybin (25 mg-10 mg)",Day 7,−0.1
same,"LCI appreciation for life, difference Psilocybin 10 mg - Placebo",Day 7,0.6
same,"LCI appreciation for life, difference Psilocybin 25 mg - Placebo",Day 7,0.5
same,"LCI appreciation for life, difference Psilocybin (25 mg-10 mg)",Day 7,−0.2
same,"LCI appreciation of death, difference Psilocybin 10 mg - Placebo",Day 7,0.1
same,"LCI appreciation of death, difference Psilocybin 25 mg - Placebo",Day 7,0.1
same,"LCI appreciation of death, difference Psilocybin (25 mg-10 mg)",Day 7,−0.0
same,"LCI concern for others, difference Psilocybin 10 mg - Placebo",Day 7,0.4
same,"LCI concern for others, difference Psilocybin 25 mg - Placebo",Day 7,0.4
same,"LCI concern for others, difference Psilocybin (25 mg-10 mg)",Day 7,0.0
same,"LCI concern for worldly achievement, difference Psilocybin 10 mg - Placebo",Day 7,−0.2
same,"LCI concern for worldly achievement, difference Psilocybin 25 mg - Placebo",Day 7,−0.1
same,"LCI concern for worldly achievement, difference Psilocybin (25 mg-10 mg)",Day 7,0.1
same,"LCI concern social, difference Psilocybin 10 mg - Placebo",Day 7,0.1
same,"LCI concern social, difference Psilocybin 25 mg - Placebo",Day 7,0.2
same,"LCI concern social, difference Psilocybin (25 mg-10 mg)",Day 7,0.1
same,"LCI quest for meaning, difference Psilocybin 10 mg - Placebo",Day 7,0.4
same,"LCI quest for meaning, difference Psilocybin 25 mg - Placebo",Day 7,0.4
same,"LCI quest for meaning, difference Psilocybin (25 mg-10 mg)",Day 7,0.0
same,"LCI religiousness, difference Psilocybin 10 mg - Placebo",Day 7,−0.1
same,"LCI religiousness, difference Psilocybin 25 mg - Placebo",Day 7,0.0
same,"LCI religiousness, difference Psilocybin (25 mg-10 mg)",Day 7,0.1
same,"LCI self-acceptance, difference Psilocybin 10 mg - Placebo",Day 7,0.7
same,"LCI self-acceptance, difference Psilocybin 25 mg - Placebo",Day 7,0.5
same,"LCI self-acceptance, difference Psilocybin (25 mg-10 mg)",Day 7,−0.1
same,"LCI spirituality, difference Psilocybin 10 mg - Placebo",Day 7,0.3
same,"LCI spirituality, difference Psilocybin 25 mg - Placebo",Day 7,0.2
same,"LCI spirituality, difference Psilocybin (25 mg-10 mg)",Day 7,−0.1
same,"LCI - absolute change, difference Psilocybin 10 mg - Placebo",Day 84,0.4
same,"LCI - absolute change, difference Psilocybin 25 mg - Placebo",Day 84,0.4
same,"LCI - absolute change, difference Psilocybin (25 mg-10 mg)",Day 84,−0.0
same,"LCI appreciation for life, difference Psilocybin 10 mg - Placebo",Day 84,0.6
same,"LCI appreciation for life, difference Psilocybin 25 mg - Placebo",Day 84,0.5
same,"LCI appreciation for life, difference Psilocybin (25 mg-10 mg)",Day 84,−0.1
same,"LCI appreciation of death, difference Psilocybin 10 mg - Placebo",Day 84,0.2
same,"LCI appreciation of death, difference Psilocybin 25 mg - Placebo",Day 84,0.2
same,"LCI appreciation of death, difference Psilocybin (25 mg-10 mg)",Day 84,0.0
same,"LCI concern for others, difference Psilocybin 10 mg - Placebo",Day 84,0.4
same,"LCI concern for others, difference Psilocybin 25 mg - Placebo",Day 84,0.5
same,"LCI concern for others, difference Psilocybin (25 mg-10 mg)",Day 84,0.1
same,"LCI concern for worldly achievement, difference Psilocybin 10 mg - Placebo",Day 84,−0.2
same,"LCI concern for worldly achievement, difference Psilocybin 25 mg - Placebo",Day 84,−0.1
same,"LCI concern for worldly achievement, difference Psilocybin (25 mg-10 mg)",Day 84,0.1
same,"LCI concern social, difference Psilocybin 10 mg - Placebo",Day 84,0.1
same,"LCI concern social, difference Psilocybin 25 mg - Placebo",Day 84,0.1
same,"LCI concern social, difference Psilocybin (25 mg-10 mg)",Day 84,0.0
same,"LCI quest for meaning, difference Psilocybin 10 mg - Placebo",Day 84,0.4
same,"LCI quest for meaning, difference Psilocybin 25 mg - Placebo",Day 84,0.4
same,"LCI quest for meaning, difference Psilocybin (25 mg-10 mg)",Day 84,−0.0
same,"LCI religiousness, difference Psilocybin 10 mg - Placebo",Day 84,−0.0
same,"LCI religiousness, difference Psilocybin 25 mg - Placebo",Day 84,0.0
same,"LCI religiousness, difference Psilocybin (25 mg-10 mg)",Day 84,0.1
same,"LCI self-acceptance, difference Psilocybin 10 mg - Placebo",Day 84,0.5
same,"LCI self-acceptance, difference Psilocybin 25 mg - Placebo",Day 84,0.5
same,"LCI self-acceptance, difference Psilocybin (25 mg-10 mg)",Day 84,0.0
same,"LCI spirituality, difference Psilocybin 10 mg - Placebo",Day 84,0.4
same,"LCI spirituality, difference Psilocybin 25 mg - Placebo",Day 84,0.4
same,"LCI spirituality, difference Psilocybin (25 mg-10 mg)",Day 84,−0.0
